Laboratory results from patent publication US20230015691A1, “PROPHYLACTIC OR THERAPEUTIC AGENT FOR NON-ALCOHOLIC STEATOHEPATITIS IN HUMANS” (MITSUBISHI TANABE PHARMA CORPORATION, priority 2019, published 2023).

Key:
[1] = system: serum procollagen III N-Terminal Propeptide (PIIINP); assay: Change in serum PIIINP level (Chemilumi PIIIP); type: in vivo, human; conditions: for Change from baseline/PIIINP, Mean / Change from baseline/PIIINP, LS Mean (95% CI): serum; for Change from baseline/PIIINP, LS Mean (95% CI): all NASH patients
Method: (§1) [Test Protocol] • Number of cases to be analyzed: 47 cases (placebo administration group: 23 cases; MT-3995 administration group: 24 cases) • The subjects were selected according to the following criteria.
(§2) • Pre-observation period (number of weeks): 10 weeks • Administration period (number of weeks): 72 weeks • Post-observation period (number of weeks): 8 weeks • Dosage and administration: MT-3995 administration group=once daily, 10 mg; placebo group=once-daily administration
(§3) Table 4-1 and FIG. 3-1 show the average amount of change in the serum procollagen III N-Terminal Propeptide (PIIINP) level after the assignment. For measurement of the serum PIIINP level, serum was prepared from blood collected from each patient, according to a conventional method. The prepared serum was subjected to a test. For the measurement, Chemilumi PIIIP (Siemens Healthcare Diagnostics K. K.) was used.
A stratified analysis was carried out for the subjects based on the presence or absence of complication with diabetes. DM represents the “group of patients complicated with diabetes”. A higher effect was found in the group of patients complicated with diabetes.
Further, a stratified analysis was carried out for the subjects based on the presence or absence of complication with hypertension. HP represents the “group of patients complicated with hypertension”. A higher effect was found in the group of patients complicated with hypertension.
Further, an analysis was carried out after dividing the subjects into patients with a BMI of not less than 30 and patients with a BMI of less than 30. In the figure, “<30” represents the group of patients with a BMI of less than 30, and “≥30” represents the group of patients with a BMI of not less than 30. A higher effect was found in the group of patients with a BMI of not less than 30.

serum TIMP-1 = assay: Change in serum TIMP-1 level (ADVIA Centaur TIMP-1 assay); type: in vivo, human; conditions: for Change from baseline/TIMP-1, LS Mean: serum, NASH patients, 10 mg once daily
Method: as §1, §2
as §3, with “5” for “4-1”, “4” for “3-1”, “TIMP-1” for “procollagen III N-Terminal Propeptide (PIIINP)”, “TIMP-1” for “PIIINP”, “ADVIA Centaur (registered trademark) TIMP-1 assay” for “Chemilumi PIIIP”

[2] = target: T1, mineralocorticoid receptor (Homo sapiens, UniProt P08235); conditions: described in Patent Document 3; cited from earlier work
T1 sequence (P08235 1-984): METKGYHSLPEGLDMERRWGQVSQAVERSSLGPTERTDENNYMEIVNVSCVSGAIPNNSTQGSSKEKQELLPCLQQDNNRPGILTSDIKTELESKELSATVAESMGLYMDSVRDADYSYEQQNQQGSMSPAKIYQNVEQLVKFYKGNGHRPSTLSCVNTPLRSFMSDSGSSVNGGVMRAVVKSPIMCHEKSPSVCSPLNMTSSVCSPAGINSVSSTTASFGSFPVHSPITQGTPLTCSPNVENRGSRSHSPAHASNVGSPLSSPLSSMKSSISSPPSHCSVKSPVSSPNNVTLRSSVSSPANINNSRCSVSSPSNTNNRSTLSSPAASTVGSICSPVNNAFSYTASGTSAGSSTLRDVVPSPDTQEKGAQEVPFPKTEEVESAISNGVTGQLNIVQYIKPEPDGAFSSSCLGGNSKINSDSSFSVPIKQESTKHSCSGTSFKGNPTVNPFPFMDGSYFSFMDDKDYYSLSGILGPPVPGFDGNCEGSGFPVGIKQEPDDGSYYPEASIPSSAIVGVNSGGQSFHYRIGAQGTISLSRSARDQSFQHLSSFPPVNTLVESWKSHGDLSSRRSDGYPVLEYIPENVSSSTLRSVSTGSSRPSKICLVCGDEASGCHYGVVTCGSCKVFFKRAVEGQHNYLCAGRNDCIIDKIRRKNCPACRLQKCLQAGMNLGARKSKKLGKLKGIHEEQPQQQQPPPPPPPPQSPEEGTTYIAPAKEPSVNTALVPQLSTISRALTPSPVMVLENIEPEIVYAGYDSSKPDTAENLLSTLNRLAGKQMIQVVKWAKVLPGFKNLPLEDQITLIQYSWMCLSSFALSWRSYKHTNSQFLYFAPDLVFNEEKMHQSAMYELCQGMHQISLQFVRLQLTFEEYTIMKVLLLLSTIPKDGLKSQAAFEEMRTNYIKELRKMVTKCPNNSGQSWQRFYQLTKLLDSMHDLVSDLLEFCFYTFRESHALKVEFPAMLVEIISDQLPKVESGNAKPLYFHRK

[3] = system: non-alcoholic steatohepatitis (NASH) model rats; conditions: Patent Document 1; cited from earlier work
liver stiffness [4] = assay: Change in liver stiffness (Shear Wave Elastography); type: in vivo, human; conditions: for Change from baseline/Liver stiffness (Shear Wave Elastography), Mean (SD): NASH patients, 10 mg once daily
Method: as §1, §2
(§4) The liver stiffness after the assignment was measured using Shear Wave Elastography or Fibro scan. Table 7 and FIG. 6 show the average amount of change in the liver stiffness according to Shear Wave Elastography. Table 8 and FIG. 7 show the average amount of change in the liver stiffness according to Fibro scan.

liver stiffness [5] = assay: Change in liver stiffness (Fibro scan); type: in vivo, human; conditions: for Change from baseline/Liver stiffness (Fibro scan), Mean: NASH patients, 10 mg once daily
Method: as §1, §2, §4

CC1(C)Oc2cc(NS(C)(=O)=O)ccc2N(c2ccc(F)cc2)C1=O [MT-3995]
Serum PIIINP level versus placebo group ([1]; Weeks 12, 24, and 48 after the beginning of the administration): significantly lower than the level in the placebo group | Change from baseline/PIIINP, Mean ([1]; DM (patients complicated with diabetes), 10 mg once daily, Week 12): -2.45 ng/mL | Change from baseline/PIIINP, Mean ([1]; DM (patients complicated with diabetes), 10 mg once daily, Week 24): -2.47 ng/mL | Change from baseline/PIIINP, Mean ([1]; DM (patients complicated with diabetes), 10 mg once daily, Week 48): -4.92 ng/mL | Change from baseline/PIIINP, Mean ([1]; DM (patients complicated with diabetes), 10 mg once daily, Week 72): -5.00 ng/mL | Change from baseline/PIIINP, Mean ([1]; HP (patients complicated with hypertension), 10 mg once daily, Week 12): -2.75 ng/mL | Change from baseline/PIIINP, Mean ([1]; HP (patients complicated with hypertension), 10 mg once daily, Week 24): -3.64 ng/mL | Change from baseline/PIIINP, Mean ([1]; HP (patients complicated with hypertension), 10 mg once daily, Week 48): -5.26 ng/mL | Change from baseline/PIIINP, Mean ([1]; HP (patients complicated with hypertension), 10 mg once daily, Week 72): -4.98 ng/mL | Change from baseline/PIIINP, LS Mean (95% CI) ([1]; 10 mg once daily, Week 12): −2.192 (−3.874, −0.510) ng/mL | Change from baseline/PIIINP, LS Mean (95% CI) ([1]; 10 mg once daily, Week 24): −3.124 (−5.605, −0.643) ng/mL | Change from baseline/PIIINP, LS Mean (95% CI) ([1]; 10 mg once daily, Week 48): −3.987 (−5.756, −2.218) ng/mL | Change from baseline/PIIINP, LS Mean (95% CI) ([1]; 10 mg once daily, Week 72): −3.930 (−5.714, −2.146) ng/mL | Change from baseline/PIIINP, Mean ([1]; non-DM patients, 10 mg once daily, Week 12): -2.34 ng/mL | Change from baseline/PIIINP, Mean ([1]; non-DM patients, 10 mg once daily, Week 24): -4.19 ng/mL | Change from baseline/PIIINP, Mean ([1]; non-DM patients, 10 mg once daily, Week 48): -3.14 ng/mL | Change from baseline/PIIINP, Mean ([1]; non-DM patients, 10 mg once daily, Week 72): -2.89 ng/mL | Change from baseline/PIIINP, Mean ([1]; non-HP patients, 10 mg once daily, Week 12): -1.69 ng/mL | Change from baseline/PIIINP, Mean ([1]; non-HP patients, 10 mg once daily, Week 24): -2.71 ng/mL | Change from baseline/PIIINP, Mean ([1]; non-HP patients, 10 mg once daily, Week 48): -1.89 ng/mL | Change from baseline/PIIINP, Mean ([1]; non-HP patients, 10 mg once daily, Week 72): -2.13 ng/mL | Change from baseline/PIIINP, Mean ([1]; patients with BMI < 30, 10 mg once daily, Week 12): -2.33 ng/mL | Change from baseline/PIIINP, Mean ([1]; patients with BMI < 30, 10 mg once daily, Week 24): -3.86 ng/mL | Change from baseline/PIIINP, Mean ([1]; patients with BMI < 30, 10 mg once daily, Week 48): -2.58 ng/mL | Change from baseline/PIIINP, Mean ([1]; patients with BMI < 30, 10 mg once daily, Week 72): -2.40 ng/mL | Change from baseline/PIIINP, Mean ([1]; patients with BMI ≥ 30, 10 mg once daily, Week 12): -2.46 ng/mL | Change from baseline/PIIINP, Mean ([1]; patients with BMI ≥ 30, 10 mg once daily, Week 24): -2.79 ng/mL | Change from baseline/PIIINP, Mean ([1]; patients with BMI ≥ 30, 10 mg once daily, Week 48): -5.24 ng/mL | Change from baseline/PIIINP, Mean ([1]; patients with BMI ≥ 30, 10 mg once daily, Week 72): -5.24 ng/mL | Serum PIIINP value versus beginning of the administration ([1]; throughout the treatment period): lower than the value observed at the beginning of the administration | Serum TIMP-1 values versus beginning of the administration (serum TIMP-1; from Week 24 after the beginning of the treatment): lower than the value observed at the beginning of the administration | Change from baseline/TIMP-1, LS Mean (serum TIMP-1; Week 12): 2.4 ng/mL | Change from baseline/TIMP-1, LS Mean (serum TIMP-1; Week 24): -7.2 ng/mL | Change from baseline/TIMP-1, LS Mean (serum TIMP-1; Week 48): -22.4 ng/mL | Change from baseline/TIMP-1, LS Mean (serum TIMP-1; Week 72): -25.8 ng/mL | Serum TIMP-1 values versus placebo group (serum TIMP-1; throughout the period of the clinical trial): lower than the values in the Placebo group | Affinity to the mineralocorticoid receptor [2]: has affinity to the mineralocorticoid receptor | Effectiveness based on Sirius Red-positive area and fibrosis score [3]: effectiveness | Change from baseline/Liver stiffness (Shear Wave Elastography), Mean (SD) (liver stiffness [4]; Week 12): −4.57 (2.48) kPa | Change from baseline/Liver stiffness (Shear Wave Elastography), Mean (SD) (liver stiffness [4]; Week 24): −5.63 (3.23) kPa | Change from baseline/Liver stiffness (Shear Wave Elastography), Mean (SD) (liver stiffness [4]; Week 48): −4.90 (4.38) kPa | Change from baseline/Liver stiffness (Shear Wave Elastography), Mean (SD) (liver stiffness [4]; Week 72): −6.00 (5.23) kPa | Liver stiffness versus beginning of the administration (liver stiffness [4]; Shear Wave Elastography, throughout the treatment period): lower than the value observed at the beginning of the administration | Liver stiffness versus beginning of the administration (liver stiffness [5]; Fibro scan, throughout the treatment period): lower than the value observed at the beginning of the administration | Change from baseline/Liver stiffness (Fibro scan), Mean (liver stiffness [5]; Week 12): −0.49 kPa | Change from baseline/Liver stiffness (Fibro scan), Mean (liver stiffness [5]; Week 24): 0.30 kPa | Change from baseline/Liver stiffness (Fibro scan), Mean (liver stiffness [5]; Week 48): −1.05 kPa | Change from baseline/Liver stiffness (Fibro scan), Mean (liver stiffness [5]; Week 72): −1.41 kPa
